From PubChem BioAssay AID1963431 (Molecular Pharmacology Branch, DTP, NCI, 2024)

Tested on: Rh18 complex spheroid viability, percent test/control
Test: Anticancer human tumor Rh18 cell line growth inhibition [Asc];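 note: spheroids exposed to compound for 7 days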;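 for viability, T/C: 100% = DMSO vehicle control wells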
Settings: for IC50: curve of first compound; for viability, T/C: stronger effect = lower value
Procedure, shortened: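 Spheroid model: tumor line + HUVEC + hMSC. Single agents and combinations; top conc. at/near clinical Cmax (10 microM if undetermined), half-log dilutions. DMSO stocks at 800-fold test concentration.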

[1] = second compound 0.01 µM, first compound 0.00316 µM
[2] = second compound 0.01 µM, first compound 0.01 µM
[3] = second compound 0.01 µM, first compound 0.0316 µM
[4] = second compound 0.01 µM, first compound 0.1 µM
[5] = second compound 0.01 µM, first compound 0.316 µM
[6] = second compound 0.01 µM, first compound 1 µM
[7] = second compound 0.0316 µM, first compound 0.00316 µM
[8] = second compound 0.0316 µM, first compound 0.01 µM
[9] = second compound 0.0316 µM, first compound 0.0316 µM
[10] = second compound 0.0316 µM, first compound 0.1 µM
[11] = second compound 0.0316 µM, first compound 0.316 µM
[12] = second compound 0.0316 µM, first compound 1 µM
[13] = second compound 0.1 µM, first compound 0.00316 µM
[14] = second compound 0.1 µM, first compound 0.01 µM
[15] = second compound 0.1 µM, first compound 0.0316 µM
[16] = second compound 0.1 µM, first compound 0.1 µM
[17] = second compound 0.1 µM, first compound 0.316 µM
[18] = second compound 0.1 µM, first compound 1 µM
[19] = second compound 0.316 µM, first compound 0.00316 µM
[20] = second compound 0.316 µM, first compound 0.01 µM
[21] = second compound 0.316 µM, first compound 0.0316 µM
[22] = second compound 0.316 µM, first compound 0.1 µM
[23] = second compound 0.316 µM, first compound 0.316 µM
[24] = second compound 0.316 µM, first compound 1 µM
[25] = second compound 1 µM, first compound 0.00316 µM
[26] = second compound 1 µM, first compound 0.01 µM
[27] = second compound 1 µM, first compound 0.0316 µM
[28] = second compound 1 µM, first compound 0.1 µM
[29] = second compound 1 µM, first compound 0.316 µM
[30] = second compound 1 µM, first compound 1 µM

| IC50 (second compound 0.01 µM) [nM] | IC50 (second compound 0.0316 µM) [nM] | IC50 (second compound 0.1 µM) [nM] | IC50 (second compound 0.316 µM) [nM] | IC50 (second compound 1 µM) [nM] | SMILES | viability, T/C [1] [%] | viability, T/C [2] [%] | viability, T/C [3] [%] | viability, T/C [4] [%] | viability, T/C [5] [%] | viability, T/C [6] [%] | viability, T/C [7] [%] | viability, T/C [9] [%] | viability, T/C [10] [%] | viability, T/C [15] [%] | viability, T/C [16] [%] | viability, T/C [21] [%] | viability, T/C [22] [%] | viability, T/C [27] [%] | viability, T/C [28] [%] | also measured |
| --- | --- | --- | --- | --- | --- | --- | --- | --- | --- | --- | --- | --- | --- | --- | --- | --- | --- | --- | --- | --- | --- |
| < 3.16 | < 3.16 | < 3.16 | < 3.16 | < 3.16 | CCN1CCN(Cc2ccc(Nc3ncc(F)c(-c4cc(F)c5nc(C)n(C(C)C)c5c4)n3)nc2)CC1 + CNC(C)C(=O)NC1CN(S(=O)(=O)c2cccc(S(=O)(=O)N3CCC4CCC(C(=O)NC(c5ccccc5)c5ccccc5)N4C(=O)C(NC(=O)C(C)NC)C3)c2)CCC2CCC(C(=O)NC(c3ccccc3)c3ccccc3)N2C1=O | 57 | 50 | 39.2 | 40.6 | 58.6 | 86.7 | 47.7 | 39.6 | 38 | 35.2 | 40.1 | 38.3 | 35.7 | 30.6 | 29.5 | viability, T/C [8]: 46.1%; viability, T/C [11]: 48.7%; viability, T/C [12]: 90.9%; viability, T/C [13]: 47.1%; viability, T/C [14]: 47.5%; viability, T/C [17]: 48.3%; viability, T/C [18]: 53.8%; viability, T/C [19]: 59.2%; viability, T/C [20]: 47.2%; viability, T/C [23]: 44.4%; viability, T/C [24]: 67.4%; viability, T/C [25]: 34.7%; viability, T/C [26]: 30%; viability, T/C [29]: 38.7%; viability, T/C [30]: 60.7% |
| 3.74 | 1.53 | < 0.316 | 0.406 | 0.588 | Cn1ncnc1[C@H]1c2n[nH]c(=O)c3cc(F)cc(c23)N[C@@H]1c1ccc(F)cc1 + CNC(C)C(=O)NC1CN(S(=O)(=O)c2cccc(S(=O)(=O)N3CCC4CCC(C(=O)NC(c5ccccc5)c5ccccc5)N4C(=O)C(NC(=O)C(C)NC)C3)c2)CCC2CCC(C(=O)NC(c3ccccc3)c3ccccc3)N2C1=O | 53.5 | 26.7 | 18.4 | 19.2 | – | – | 36.5 | 18.7 | 21.3 | 14.8 | 15 | 12.4 | 20 | 18.4 | 14.2 | viability, T/C (second compound 0.01 µM, first compound 0.000316 µM): 54.4%; viability, T/C (second compound 0.01 µM, first compound 0.001 µM): 64.3%; viability, T/C (second compound 0.0316 µM, first compound 0.000316 µM): 62.7%; viability, T/C (second compound 0.0316 µM, first compound 0.001 µM): 58.1%; viability, T/C [8]: 23.1%; viability, T/C (second compound 0.1 µM, first compound 0.000316 µM): 39.4%; viability, T/C (second compound 0.1 µM, first compound 0.001 µM): 47.7%; viability, T/C [13]: 34.6%; viability, T/C [14]: 18%; viability, T/C (second compound 0.316 µM, first compound 0.000316 µM): 55.7%; viability, T/C (second compound 0.316 µM, first compound 0.001 µM): 29.6%; viability, T/C [19]: 25.5%; viability, T/C [20]: 19.6%; viability, T/C (second compound 1 µM, first compound 0.000316 µM): 49.1%; viability, T/C (second compound 1 µM, first compound 0.001 µM): 51.2%; viability, T/C [25]: 42.9%; viability, T/C [26]: 26.1% |
| 404 | < 31.6 | < 31.6 | < 31.6 | < 31.6 | O=C(c1cc(Cc2n[nH]c(=O)c3ccccc23)ccc1F)N1CCN(C(=O)C2CC2)CC1 + CNC(C)C(=O)NC1CN(S(=O)(=O)c2cccc(S(=O)(=O)N3CCC4CCC(C(=O)NC(c5ccccc5)c5ccccc5)N4C(=O)C(NC(=O)C(C)NC)C3)c2)CCC2CCC(C(=O)NC(c3ccccc3)c3ccccc3)N2C1=O | – | – | 60.7 | 48.4 | 49.6 | 39.4 | – | 45.8 | 49.9 | 42 | 40.2 | 40 | 38.9 | 32.2 | 36.8 | viability, T/C (second compound 0.01 µM, first compound 3.16 µM): 13.2%; viability, T/C (second compound 0.01 µM, first compound 10 µM): 16.7%; viability, T/C [11]: 46.4%; viability, T/C [12]: 34.5%; viability, T/C (second compound 0.0316 µM, first compound 3.16 µM): 16.7%; viability, T/C (second compound 0.0316 µM, first compound 10 µM): 18.1%; viability, T/C [17]: 26.7%; viability, T/C [18]: 27.8%; viability, T/C (second compound 0.1 µM, first compound 3.16 µM): 11.1%; viability, T/C (second compound 0.1 µM, first compound 10 µM): 12.8%; viability, T/C [23]: 36.8%; viability, T/C [24]: 26.6%; viability, T/C (second compound 0.316 µM, first compound 3.16 µM): 11.3%; viability, T/C (second compound 0.316 µM, first compound 10 µM): 12.2%; viability, T/C [29]: 32.5%; viability, T/C [30]: 26.1%; viability, T/C (second compound 1 µM, first compound 3.16 µM): 10.8%; viability, T/C (second compound 1 µM, first compound 10 µM): 10.9% |
| 61.8 | 3.16 | < 3.16 | < 3.16 | < 3.16 | O=C(c1ccc(F)c(F)c1Nc1ccc(I)cc1F)N1CC(O)([C@@H]2CCCCN2)C1 + CNC(C)C(=O)NC1CN(S(=O)(=O)c2cccc(S(=O)(=O)N3CCC4CCC(C(=O)NC(c5ccccc5)c5ccccc5)N4C(=O)C(NC(=O)C(C)NC)C3)c2)CCC2CCC(C(=O)NC(c3ccccc3)c3ccccc3)N2C1=O | 53.6 | 59.4 | 48.5 | 45.2 | 41.8 | 14.8 | 50.4 | 43.6 | 47.7 | 36.1 | 43.4 | 38.2 | 42.3 | 37.3 | 42.9 | viability, T/C [8]: 46.1%; viability, T/C [11]: 52.1%; viability, T/C [12]: 20.4%; viability, T/C [13]: 39.7%; viability, T/C [14]: 40.8%; viability, T/C [17]: 37.9%; viability, T/C [18]: 8.57%; viability, T/C [19]: 43.8%; viability, T/C [20]: 47%; viability, T/C [23]: 41.6%; viability, T/C [24]: 13.5%; viability, T/C [25]: 41.5%; viability, T/C [26]: 37.6%; viability, T/C [29]: 28.9%; viability, T/C [30]: 11.6% |
